One compound from patent EP3153160A1, “USE OF XANTHOPHYLLS FOR THE TREATMENT OF CANCERS” (Lu, Chuen Wei, priority 2015, dated 2017) can be followed below.

Assay type in all cases: cell-based
Assay [1] has as its system Mouse adrenocortical Y1 cell line. Briefly: Y1 cell growth, cell counting. Conditions: 40 µM astaxanthin, 1, 2 or 3 days of treatment, compared with control (DMSO treated) group; Figures 1 and 2. As to the method:
(§1) Mouse adrenocortical Y1 cell line (ATCC, ATCC® CCL-79™) was grown in Dulbecco's modified Eagle medium (DMEM)-F12 supplemented with 10% fetal bovine serum at 37°C in a humidified atmosphere at 5% CO2.
(§2) Astaxanthin (Model NO: ATP-9601A; Yuan Yu Bio-Tech (Taiwan), Co., Ltd) was dissolved in dimethyl sulfoxide (DMSO) at concentration of 20 mM as stock solution.
(§3) The Y1 cells were incubated with DMSO or 40 µM of astaxanthin for 1, 2 or 3 days before analysis.

The next assay has as its system M059K. Description: M059K cell growth, cell counting. Conditions: 100, 200 or 400 µM astaxanthin for 24 hours or 48 hours, cell numbers counted, vs DMSO; Figure 6. As to the method:
(§4) Human U87MG (ATCC, ATCC® HTB-14™) cell line was grown in DMEM medium supplemented with 10% fetal bovine serum at 37°C in a humidified atmosphere at 5% CO2. M059K (ATCC, ATCC® CRL-2365™) and M059J (ATCC, ATCC® CRL-2366™) cell lines were grown in Dulbecco's modified Eagle medium (DMEM)-F12 supplemented with 10% fetal bovine serum at 37°C in a humidified atmosphere at 5% CO2.
(§5) Astaxanthin was dissolved in dimethyl sulfoxide (DMSO) at concentration of 20 mM as stock solution.
(§6) The U87MG, M059K, and M059J cell lines were treated with DMSO or 100, 200 or 400 µM of astaxanthin for 24 hours or 48 hours and cell numbers were counted.

Another assay has as its system M059J. Description: M059J cell growth, cell counting. Conditions: 100, 200 or 400 µM astaxanthin for 24 hours or 48 hours, cell numbers counted, vs DMSO; Figure 7. As to the method:
as §4, §5, §6

The test system of assay [2] is Mouse adrenocortical Y1 cell line. Description: MTT assay of Y1 cell viability. The settings on record: Y1 cells, 40 µM astaxanthin for 48 hours, compared with DMSO treated group, Fig. 3. As to the method: as §1, §2, §3
(§7) Cells were washed with PBS after the treatment, followed by addition of 1 ml MTT (3-(4,5-cimethylthiazol-2-yl)-2,5-diphenyl tetrazolium bromide) solution (2 mg/ml in PBS) in each well. After incubation for 3 hours at 37°C, 2 ml of DMSO was added and cells were incubated in the dark for 30 minutes. Absorbance was measured at the wavelength of 570 nm (OD570).
For orientation: Tetrazolium dyes change colour on reduction, which living cells bring about.

Assay [3] has as its system Human U87MG. Description: MTT assay of U87MG cell viability. Conditions: DMSO or different concentrations of astaxanthin, Figures 5A and 5B. As to the method:
as §7, §4, §5, §6

A further assay concerns Human U2OS. Description: U2OS cell growth, cell counting. Conditions: 100, 200 or 400 µM astaxanthin for 72 hours, cell numbers counted, vs DMSO; Figure 8. As to the method: Human U2OS (ATCC, ATCC® HTB-96™) cell line was grown in DMEM medium supplemented with 10% fetal bovine serum at 37°C in a humidified atmosphere at 5% CO2.
as §5
The U2OS cell line was treated with DMSO or 100, 200 or 400 µM of astaxanthin for 72 hours and cell numbers were counted.

Assay [4] relates to Human U87MG. Briefly: U87MG cell growth, cell counting. Conditions: 100, 200 or 400 µM astaxanthin for 24 hours or 48 hours, cell numbers counted, vs DMSO; Figure 4. As to the method: as §4, §5, §6

For `CC1=C(/C=C/C(C)=C/C=C/C(C)=C/C=C/C=C(C)/C=C/C=C(C)/C=C/C2=C(C)C(=O)C(O)CC2(C)C)C(C)(C)CC(O)C1=O` (stereo not shown) [astaxanthin, Astaxanthin], the “number of Y1 cells” value in assay [1] is on record as “reduced”. Further, the M059K cell growth result in the assay on M059K is listed as “inhibited”. Also, in the assay on M059J, the M059J cell growth entry is recorded as “inhibited”. For the same compound, the OD570 entry in assay [2] is “reduced”. Besides, in the assay with Human U87MG [3], the “viability of U87MG cells” value is reported as “reduced”. Besides, the U2OS cell growth result in the assay with Human U2OS is on record as “inhibited U2OS cell growth in a dose-dependent manner”. In addition, the U87MG cell growth entry in the assay with Human U87MG [4] was “inhibited U87MG cell growth in a dose-dependent and time-dependent manner”.
